# Measured values as given in patent publication US8569324B2, “Potentiator for radiation therapy comprising pyridine derivative as active ingredient” (Taiho Pharmaceutical Co., Ltd., priority 2005, dated 2013).
# Where “and” joins values, the source holds several entries; their conditions need not be identical. Equal values may be shown once.
# What was measured:
# [1] = system: human lung cancer LC-11 strain; experiment: Comparative Example 1: radiotherapy enhancing effect of cisplatin on human lung cancer LC-11 strain transplanted into nude mice; type: in vivo, BALB/cA-nu mouse
# Protocol: (a) Preparation of test solution I: The cisplatin solution (0.5 mg/mL) available from Bristol-Myers Squibb Company was used as it was. 0.1 mL per mouse body weight 10 g was administered for the dose of cisplatin 5 mg/kg, and […] per mouse body weight 10 g was administered for the dose of 7.5 mg/kg. (b) Method for radiation (X-ray) irradiation: Local irradiation was performed on a human tumor strain transplanted into the right femoral region of the mouse using MBR-1505R Type 2 X-ray Irradiation System of Hitachi Medical Corporation under an irradiation condition (irradiation position) so that exposure per mouse should be 2 Gy or 5 Gy. To prevent systemic irradiation, mice were placed in a storage box made of lead so that only their right leg should be exposed to radiation. (c) Test: The human lung cancer LC-11 strain subcutaneously transplanted into the back of a BALB/cA-nu mouse and grown beforehand were removed, cut into small fragments of about 2×2 mm^2 with scissors in physiological saline, and subcutaneously transplanted into the right femoral region of 5 to 6-week-old mice of the same strain with a transplantation needle. The mice were bred for at least 1 to 2 weeks and divided into the control group, the radiation alone group, the drug alone group, and the drug plus radiation group, so that the tumor volume and standard deviation (S.D.) in each group (n=6 per group) should be as uniform as possible. Then, drug administration and X-ray irradiation were initiated. For the drug treatment group, 0.1 mL per body weight 10 g of a cisplatin solution for the dose of 5 mg/kg or […] per body weight 10 g of this solution for the dose of 7.5 mg/kg was administered into the caudal vein on day 1. The radiation group was irradiated with 2 Gy of X-ray in the above-described manner on day 1, at the start of the test, and on day 8. For tumor-bearing mice in the control group (non-radiation/non-drug treatment group) and the radiation alone group, physiological saline was administered into the caudal vein on day 1. By using the above-mentioned numerical formula 1, the tumor volume of each mouse in each group was obtained prior to the start of treatment experiment, on days 3, 5, 8 (1 week later) and 11 during the treatment period, and days 15 (2 weeks later), 18, 22 (3 weeks later), 25, and 29 (4 weeks later) after completion of treatment. A relative tumor volume (RTV) to the tumor volume at the start of the test was obtained for each mouse. Then, the mean tumor growth inhibition rate (IR; %) in each treatment group based on the control group was obtained by using the above-mentioned numerical formula 2 on days 15, at the end of the treatment period, and 29, at 4 weeks later, and shown in Table 3.
# normal skin = experiment: Test Example 3: effect of irradiation on disorders of normal tissues (normal skin), severity by method of Douglas et al.; type: in vivo, BALB/cA-nu mice; conditions: CDHP 50 mg/kg/day oral 7 days + 20 Gy X-ray on days 1 and 3; 6 animals; radiation alone: grades 1.5 or higher in all 6 after day 14
# Protocol: (a) Preparation of test solution: CDHP was suspended in a 0.5% (W/V) HPMC solution at a concentration of 5.0 mg/mL, and the suspension was stirred with a stirrer at room temperature for about 10 minutes and ultrasonicated with ice cooling for about 5 minutes to obtain a drug solution of 50 mg/kg/day as CDHP. (b) Method for X-ray irradiation: Local irradiation was performed on the right femoral region of the mouse using MBR-1505R Type 2 X-ray Irradiation System of Hitachi Medical Corporation under an irradiation condition (irradiation position) so that exposure per mouse should be 20 Gy. To prevent systemic irradiation, mice were placed in a storage box made of lead so that only their right leg should be exposed to radiation. (c) Test: Six to 8-week-old BALB/cA-nu mice were divided into the control group, the radiation alone group, and the drug plus radiation group, each consisting of 6 animals, and drug administration and X-ray irradiation were initiated. […] (d) Determination of severity of skin disorders: From 7 days after the end of the test, severity of skin disorders in the femoral region caused by irradiation was determined by the method of Douglas, et al. (Douglas B G, et al.: The effect of multiple small doses of X-rays on skin reactions in the mice and a basic interpretation. Radiation Res., 66: 401-426, 1976.).
# [2] = system: human lung cancer strain (LC-11); experiment: Test Example 1: radiotherapy enhancing effect of CDHP on human lung cancer strain LC-11 transplanted into nude mice; type: in vivo, BALB/cA-nu mouse
# Protocol: (a) Preparation of test solution: 5-Chloro-2,4-dihydroxypyridine (CDHP) was suspended in a 0.5% (W/V) hydroxypropylmethylcellulose (HPMC) solution at concentrations of 0.25 and 2.5 mg/mL, and the suspension was stirred with a stirrer at room temperature for about 10 minutes and ultrasonicated for about 5 minutes with ice cooling to obtain a drug solution of 2.5 or 25 mg/kg/day as CDHP. (b) Method for Radiation (X-ray) irradiation: Local irradiation was performed on a human tumor strain transplanted into the right femoral region of the mouse using MBR-1505R Type 2 X-ray Irradiation System of Hitachi Medical Corporation under an irradiation condition (irradiation position) so that exposure per mouse should be 2 Gy or 5 Gy. To prevent systemic irradiation, mice were placed in a storage box made of lead so that only their right leg should be exposed to radiation. (c) Test: The human lung cancer strain (LC-11) subcutaneously transplanted into the back of a BALB/cA-nu mouse and grown beforehand were removed, cut into small fragments of about 2×2 mm^2 with scissors in physiological saline, and subcutaneously transplanted into the right femoral region of 5 to 6-week-old mice of the same strain with a transplantation needle. The mice were bred for at least 1 to 2 weeks and divided into the control group, the radiation alone group, the drug alone group, and the drug plus radiation group, so that the tumor volume and standard deviation (S.D.) in each group (n=6 per group) should be as uniform as possible. Then, drug administration and X-ray irradiation were initiated. The drug treatment group was orally administered with 0.1 mL each of the above-described CDHP drug solution per body weight 10 g once daily for 14 consecutive days using a sonde for oral administration. The radiation group was irradiated with 2 Gy or 5 Gy of X-ray within about 1 hour after administration of the CDHP drug solution in the above-described manner on day 1, at the start of the test, and on day 8. Tumor-bearing mice in the control group (non-radiation/non-drug treatment group) and the radiation alone group were orally administered with 0.5% HPMC solution alone in the same manner for 14 consecutive days.
# By using the following numerical formula 1, the tumor volume of each mouse in each group was obtained prior to the start of treatment experiment, on days 3, 5, 8 (1 week later) and 11 during the treatment period, and days 15 (2 weeks later), 18, 22 (3 weeks later), 25, and 29 (4 weeks later) after completion of the treatment. A relative tumor volume (RTV) to the tumor volume at the start of the test was obtained for each mouse. […] The mean tumor growth inhibition rate (IR; %) in each treatment group based on the control group was obtained by using the following numerical formula 2 on days 15, at the end of the treatment period, and 29 at 4 weeks later and shown in Table 1.
# [3] = system: human lung cancer strain (LC-11); experiment: Test Example 2: radiotherapy enhancing effect of CNDP on human lung cancer strain LC-11 transplanted into nude mice; type: in vivo, BALB/cA-nu mouse
# Protocol: (a) Preparation of test solution: 3-Cyano-2,6-dihydroxypyridine (CNDP) was suspended in a 0.5% (W/V) hydroxypropylmethylcellulose (HPMC) solution at concentrations of 2.5 and 5.0 mg/mL, and the suspension was stirred with a stirrer at room temperature for about 10 minutes and ultrasonicated for about 5 minutes with ice cooling to obtain a drug solution of 25 or 50 mg/kg/day as CNDP. (b) Method for radiation (X-ray) irradiation: Local irradiation was performed on a human tumor strain transplanted into the right femoral region of the mouse using MBR-1505R Type 2 X-ray Irradiation System of Hitachi Medical Corporation under an irradiation condition (irradiation position) so that exposure per mouse should be 2 Gy or 5 Gy. To prevent systemic irradiation, mice were placed in a storage box made of lead so that only their right leg should be exposed to radiation. (c) Test: The human lung cancer strain (LC-11) subcutaneously transplanted into the back of a BALB/cA-nu mouse and grown beforehand were removed, cut into small fragments of about 2×2 mm^2 with scissors in physiological saline, and subcutaneously transplanted into the right femoral region of 5 to 6-week-old mice of the same strain with a transplantation needle. The mice were bred for at least 1 to 2 weeks and divided into the control group, the radiation alone group, the drug alone group, and the drug plus radiation group, so that the tumor volume and standard deviation (S.D.) in each group (n=6 per group) should be as uniform as possible. Then, drug administration and X-ray irradiation were initiated. The drug treatment group was orally administered with 0.1 mL of the above-described 5 mg/mL CNDP drug solution per body weight 10 g once daily for 14 consecutive days using a sonde for oral administration. The radiation group was irradiated with 2 Gy or 5 Gy of X-ray within about 1 hour after administration of the CNDP drug solution in the above-described manner on day 1, at the start of the test, and on day 8. Tumor-bearing mice in the control group (non-radiation/non-drug treatment group) and the radiation alone group were orally administered with […] solution alone in the same manner for 14 consecutive days.
# By using the above-mentioned numerical formula 1, the tumor volume of each mouse in each group was obtained prior to the start of treatment experiment, on days 3, 5, 8, (1 week later) and 11 during the treatment period, and day 15 (2 weeks later) after completion of treatment. A relative tumor volume (RTV) to the tumor volume at the start of the test was obtained for each mouse (FIG. 1).
compound,measurement,setting,value
"[NH2][Pt]([NH2])([Cl])[Cl] [CDDP, cisplatin]",IR (%) Day 15,"[1]; CDDP 5.0 mg/kg caudal vein on day 1 + X-ray 2 Gy on days 1 and 8, Day 15",53.8%
same,IR (%) Day 29,"[1]; CDDP 5.0 mg/kg caudal vein on day 1 + X-ray 2 Gy on days 1 and 8, Day 29",46.8%
same,IR (%) Day 15,"[1]; CDDP 5.0 mg/kg caudal vein on day 1, no X-ray, Day 15",39.9%
same,IR (%) Day 29,"[1]; CDDP 5.0 mg/kg caudal vein on day 1, no X-ray, Day 29",45.6%
same,enhancement of antitumor effects by combination compared with CDDP alone,[1]; CDDP 5 mg/kg or 7.5 mg/kg and 2-Gy X-ray irradiation,did not significantly enhance antitumor effects
same,IR (%) Day 15,"[1]; CDDP 7.5 mg/kg caudal vein on day 1 + X-ray 2 Gy on days 1 and 8, Day 15",54.6%
same,IR (%) Day 29,"[1]; CDDP 7.5 mg/kg caudal vein on day 1 + X-ray 2 Gy on days 1 and 8, Day 29",66.8%
same,IR (%) Day 15,"[1]; CDDP 7.5 mg/kg caudal vein on day 1, no X-ray, Day 15",55.8%
same,IR (%) Day 29,"[1]; CDDP 7.5 mg/kg caudal vein on day 1, no X-ray, Day 29",60.2%
same,radiotherapy enhancing effect,[1]; series of examinations using human lung cancer LC-11 strain,very weak
"Oc1cc(O)c(Cl)cn1 [CDHP, 5-chloro-2,4-dihydroxypyridine]",severity of skin disorders in the femoral region caused by irradiation,normal skin,"mild disorders (redness, swelling) were observed only in 1 or 2 mice"
same,Tumor growth inhibition rate IR(%) Day 15,"[2]; CDHP 2.5 mg/kg oral once daily 14 days + X-ray 2 Gy on days 1 and 8, Day 15",41%
same,Tumor growth inhibition rate IR(%) Day 29,"[2]; CDHP 2.5 mg/kg oral once daily 14 days + X-ray 2 Gy on days 1 and 8, Day 29",25% and 24.7* %
same,Tumor growth inhibition rate IR(%) Day 15,"[2]; CDHP 2.5 mg/kg oral once daily 14 days, X-ray 0 Gy, Day 15",17.2%
same,Tumor growth inhibition rate IR(%) Day 29,"[2]; CDHP 2.5 mg/kg oral once daily 14 days, X-ray 0 Gy, Day 29",−7.9%
same,Tumor growth inhibition rate IR(%) Day 15,"[2]; CDHP 25 mg/kg oral once daily 14 days + X-ray 2 Gy on days 1 and 8, Day 15",57% and 57.2%
same,Tumor growth inhibition rate IR(%) Day 29,"[2]; CDHP 25 mg/kg oral once daily 14 days + X-ray 2 Gy on days 1 and 8, Day 29",46% and 46.3** %
same,Tumor growth inhibition rate IR(%) Day 15,"[2]; CDHP 25 mg/kg oral once daily 14 days, X-ray 0 Gy, Day 15",9.7%
same,Tumor growth inhibition rate IR(%) Day 29,"[2]; CDHP 25 mg/kg oral once daily 14 days, X-ray 0 Gy, Day 29",−15.3%
same,enhancement of the effect of X-ray,[2]; CDHP 2.5 and 25 mg/kg with 2-Gy X-ray irradiation in combination,significantly enhanced the effect of X-ray
same,antitumor effect of drug alone,"[2]; CDHP alone, both doses 2.5 and 25 mg/kg",hardly showed any antitumor effect
same,"serious adverse drug reactions (body weight loss, skin disorders)",[2]; mice receiving CDHP and X-ray in combination,no serious adverse drug reactions such as body weight loss and skin disorders were observed
"N#Cc1ccc(O)nc1O [CNDP, 3-cyano-2,6-dihydroxypyridine]",Tumor growth inhibition rate (IR) (%) Day 11,"[3]; CNDP 25 mg/kg oral once daily + X-ray 2 Gy on days 1 and 8, Day 11",44.7%
same,Tumor growth inhibition rate IR(%) Day 15,"[3]; CNDP 25 mg/kg oral once daily + X-ray 2 Gy on days 1 and 8, Day 15",54.6%
same,Tumor growth inhibition rate (IR) (%) Day 11,"[3]; CNDP 50 mg/kg oral once daily 14 days, X-ray 0 Gy, Day 11",1.8%
same,Tumor growth inhibition rate IR(%) Day 15,"[3]; CNDP 50 mg/kg oral once daily 14 days, X-ray 0 Gy, Day 15",8.2%
same,Tumor growth inhibition rate (IR) (%) Day 11,"[3]; CNDP 50 mg/kg oral once daily + X-ray 2 Gy on days 1 and 8, Day 11",44.4%
same,Tumor growth inhibition rate IR(%) Day 15,"[3]; CNDP 50 mg/kg oral once daily + X-ray 2 Gy on days 1 and 8, Day 15",60.4%
same,enhancement of the antitumor effect of X-ray,[3]; CNDP 25 and 50 mg/kg with 2-Gy X-ray irradiation in combination,significantly increased the antitumor effect of 2-Gy X-ray
same,antitumor effect of drug alone,"[3]; CNDP alone, high dose of 50 mg/kg",hardly showed any antitumor effect
same,"serious adverse drug reactions (body weight loss, skin disorders)",[3]; mice receiving CNDP and X-ray in combination,no serious adverse drug reactions such as body weight loss and skin disorders were observed
